# Laboratory results taken from publication PMC4491112 (Cancer chemotherapy and pharmacology, 2011).
# “Also recorded” adds a separate entry of the source. Read-outs that look alike come from different tables or passages of the source.
# Tests used:
# [1] = type: in vivo, human; settings: 20 mg oral
# [2] = Adverse events and ECG; type: in vivo, human
# [3] = Adverse events, laboratory abnormalities and ECG; type: in vivo, human; settings: continual treatment phase, 45 mg
# [4] = system: advanced solid tumors; assay: Tumor response by RECIST version 1.0; type: in vivo, human
# [5] = fasting state, two other phase 1 studies, CV 56%; cited from earlier work
# [6] = highly soluble, highly permeable class; cited from earlier work
# [7] = administered on days 1 and 4 of a weekly schedule; cited from earlier work
# [8] = high-fat breakfast vs fasting, P < 0.001; cited from earlier work
# [9] = 20 mg, all patients (n = 36), any grade
# [10] = 20 mg, high-fat breakfast (n = 36), any grade
# [11] = 20 mg, high-fat breakfast, any grade
# [12] = 20 mg, normal breakfast (n = 34), any grade
# [13] = 20 mg, normal breakfast, any grade
# [14] = 20 mg, overnight fast (n = 34), any grade
# [15] = food-effect phase, 20 mg, N = 36, Grade 3/4, regardless of study drug relationship
# [16] = food-effect phase, 20 mg, N = 36, any grade, regardless of study drug relationship
# [17] = food-effect phase, 20 mg, any grade
# [18] = N = 29, Grade 3/4, regardless of study drug relationship
# [19] = N = 29, any grade, regardless of study drug relationship
smiles,measurement,setting,value
"Cc1[nH]c2ccccc2c1CCNCc1ccc(/C=C/C(=O)NO)cc1 [panobinostat, Panobinostat]",effect of prandial state on mean elimination half-life,[1]; fasting vs high-fat vs normal breakfast,not altered; also recorded: unaltered
same,reduction of systemic exposure following food,[1]; food vs fasting,14–16%
same,interpatient variability of exposure (coefficient of variation),[1]; with or without food,59%
same,Cmax reduction,[1]; high-fat breakfast vs fasting,44%
same,"Tmax, median difference (range)",[1]; high-fat breakfast/fasting,2.48 (–2.00 to 7.02) h
same,AUC(0-inf),"[1]; human, plasma, po, 20 mg, AUC0–∞, mean (CV, %), fasting (n = 33)",176 ng·h/mL
same,Cmax,"[1]; human, plasma, po, 20 mg, Cmax, mean (CV, %), fasting (n = 33)",23 ng/mL
same,Tmax,"[1]; human, plasma, po, 20 mg, Tmax, median (range), fasting (n = 33)",1.5 h
same,half-life,"[1]; human, plasma, po, 20 mg, t1/2, mean (CV, %), fasting (n = 33)",14.5 h
same,Cmax reduction,[1]; normal breakfast vs fasting,36%
same,"Tmax, median difference (range)",[1]; normal breakfast/fasting,1.45 (–2.50 to 2.02) h
same,Panobinostat-related fatigue,[2]; [9],16 (44.4) n (%)
same,Panobinostat-related nausea,[2]; [9],11 (30.6) n (%)
same,Panobinostat-related vomiting,[2]; [9],7 (19.4) n (%)
same,"drug-related diarrhea, frequency","[2]; 20 mg, fasting, any grade",5.9%
same,"drug-related nausea, frequency","[2]; 20 mg, fasting, any grade",14.7%
same,"drug-related vomiting, frequency","[2]; 20 mg, fasting, any grade",14.7%
same,Panobinostat-related fatigue,[2]; [10],5 (13.9) n (%)
same,Panobinostat-related nausea,[2]; [10],3 (8.3) n (%)
same,Panobinostat-related vomiting,[2]; [10],1 (2.8) n (%)
same,"drug-related diarrhea, frequency",[2]; [11],0%
same,"drug-related fatigue, frequency",[2]; [11],13.9%
same,"drug-related nausea, frequency",[2]; [11],8.3%
same,"drug-related vomiting, frequency",[2]; [11],2.8%
same,Panobinostat-related fatigue,[2]; [12],10 (29.4) n (%)
same,Panobinostat-related nausea,[2]; [12],8 (23.5) n (%)
same,Panobinostat-related vomiting,[2]; [12],5 (14.7) n (%)
same,"drug-related diarrhea, frequency",[2]; [13],8.8%
same,"drug-related fatigue, frequency",[2]; [13],29.4%
same,"drug-related nausea, frequency",[2]; [13],23.5%
same,"drug-related vomiting, frequency",[2]; [13],14.7%
same,Panobinostat-related fatigue,[2]; [14],1 (2.9) n (%)
same,Panobinostat-related nausea,[2]; [14],5 (14.7) n (%)
same,Panobinostat-related vomiting,[2]; [14],5 (14.7) n (%)
same,"drug-related fatigue, frequency","[2]; 20 mg, overnight fast, any grade",2.9%
same,patients with SAEs,"[2]; food-effect phase, 20 mg",seven
same,reported grade 3 or 4 AEs,"[2]; food-effect phase, 20 mg",eight
same,QTcF >480 ms or >60 ms increase from baseline,"[2]; food-effect phase, 20 mg, 12-lead ECG",no QTcF >480 ms or >60 ms increase from baseline was observed
same,Abdominal pain,[2]; [15],0 (0) n (%)
same,Constipation,[2]; [15],0 (0) n (%)
same,Diarrhea,[2]; [15],1 (2.8) n (%)
same,Fatigue,[2]; [15],3 (8.3) n (%)
same,Headache,[2]; [15],0 (0) n (%)
same,Nausea,[2]; [15],2 (5.6) n (%)
same,Pyrexia,[2]; [15],0 (0) n (%)
same,Thrombocytopenia,[2]; [15],0 (0) n (%)
same,Total adverse events,[2]; [15],8 (22.2) n (%)
same,Vomiting,[2]; [15],2 (5.6) n (%)
same,Abdominal pain,[2]; [16],5 (13.9) n (%)
same,Constipation,[2]; [16],7 (19.4) n (%)
same,Diarrhea,[2]; [16],7 (19.4) n (%)
same,Fatigue,[2]; [16],18 (50.0) n (%)
same,Headache,[2]; [16],6 (16.7) n (%)
same,Nausea,[2]; [16],15 (41.7) n (%)
same,Pyrexia,[2]; [16],5 (13.9) n (%)
same,Thrombocytopenia,[2]; [16],5 (13.9) n (%)
same,Total adverse events,[2]; [16],34 (94.4) n (%)
same,Vomiting,[2]; [16],10 (27.8) n (%)
same,"Fatigue, frequency",[2]; [17],50%
same,"Nausea, frequency",[2]; [17],41.7%
same,"Thrombocytopenia, frequency",[2]; [17],13.9%
same,"Vomiting, frequency",[2]; [17],27.8%
same,study-drug related SAEs,"[2]; food-effect phase, 20 mg, grade 3 fatigue and grade 3 vomiting",two
same,patients discontinued due to adverse events,"[2]; food-effect phase, grade 3 fatigue and nausea/vomiting following a normal breakfast",one
same,"Fatigue, overall frequency",[3],48.3%
same,"Nausea, overall frequency",[3],37%
same,"Vomiting, overall frequency",[3],31.0%
same,frequency of grade 3 and 4 AEs,[3],65.5%
same,grade 3/4 biochemical abnormality: hypophosphatemia,[3],10.3%
same,grade 3/4 newly occurring or worsened hematologic laboratory abnormality: decreased platelet count,[3],44.8%
same,Abdominal pain,[3]; [18],1 (3.4) n (%)
same,Anemia,[3]; [18],1 (3.4) n (%)
same,Anorexia,[3]; [18],0 (0.0) n (%)
same,Constipation,[3]; [18],0 (0.0) n (%)
same,Decreased platelet count,[3]; [18],3 (10.3) n (%)
same,Diarrhea,[3]; [18],1 (3.4) n (%)
same,Dyspnea,[3]; [18],0 (0.0) n (%)
same,Fatigue,[3]; [18],5 (17.2) n (%)
same,Headache,[3]; [18],0 (0.0) n (%)
same,Nausea,[3]; [18],1 (3.4) n (%)
same,Pyrexia,[3]; [18],0 (0.0) n (%)
same,Thrombocytopenia,[3]; [18],11 (37.9) n (%)
same,Total adverse events,[3]; [18],19 (65.5) n (%)
same,Vomiting,[3]; [18],2 (6.9) n (%)
same,Abdominal pain,[3]; [19],6 (20.7) n (%)
same,Anemia,[3]; [19],5 (17.2) n (%)
same,Anorexia,[3]; [19],10 (34.5) n (%)
same,Constipation,[3]; [19],3 (10.3) n (%)
same,Decreased platelet count,[3]; [19],6 (20.7) n (%)
same,Diarrhea,[3]; [19],8 (27.6) n (%)
same,Dyspnea,[3]; [19],7 (24.1) n (%)
same,Fatigue,[3]; [19],14 (48.3) n (%)
same,Headache,[3]; [19],5 (17.2) n (%)
same,Nausea,[3]; [19],11 (37.9) n (%)
same,Pyrexia,[3]; [19],3 (10.3) n (%)
same,Thrombocytopenia,[3]; [19],15 (51.7) n (%)
same,Total adverse events,[3]; [19],26 (89.7) n (%)
same,Vomiting,[3]; [19],9 (31.0) n (%)
same,"Thrombocytopenia, frequency",[3]; any grade,51.7%
same,"Thrombocytopenia, frequency",[3]; grade 3/4,37.9%
same,patients with QTc-interval abnormalities,[3]; QTcF >500 ms and/or increase >60 ms from baseline,two
same,"progressive disease, share of patients","[4]; N = 36, RECIST",58.3%
same,"partial response, share of patients","[4]; N = 36, best response, RECIST",2.8%
same,"stable disease, share of patients","[4]; N = 36, best response, RECIST",16.7%
same,mean AUC0–∞,[5],183 ng·h/mL
same,Biopharmaceutics Classification System class,[6],Class I like
same,accumulation,[7],did not accumulate
O=C(CCCCCCC(=O)Nc1ccccc1)NO [vorinostat],delay in Tmax by food,[8],2.5 h
